Measurements: patent US9388389B2, “JFH-1 based HCV cell culture systems for NS5A of genotypes 1-7” (Hvidovre Hospital, priority 2009, dated 2016)
Read-outs that look alike come from different tables or passages of the source.

What was measured:
Test in all cases: BMS-790052 treatment of infected cultures
[1] = tested on: J6(2a) NS5A recombinant; format: cell-based; details: Hepatitis C virus
Description: (§1) 5×10^3 naïve Huh7.5 cells were plated per well in a poly-D-lysine coated 96-well plate (Nunc, Roskilde, D K) one day before infection with different recombinant viruses. Infectious doses were chosen to aim at 400-1000 single infected cells in non-treated wells at the end of the experiment. J6/JFH1 was included with two infectious doses (high and low) to control for impact of dose variability. The infectious dose of other recombinants was in the range between. […] On day three cells were fixed and immunostained for NS3 expression as described above. In parallel, cell viability was monitored with CellTiter™ 96 AQueous One Solution Cell Proliferation Assay (Promega, Madison, Wis. USA). The number of single infected cells was determined by automated counting of individual wells as described above.
(§2) To improve HCV treatment, much attention has been drawn to development of specific small molecule HCV inhibitors, including inhibitors of NS5A. Using the NS5A genotype recombinants, we investigated sensitivity to the NS5A inhibitor most advanced in clinical trials, BMS-790052. Treatment experiments using the specific NS5A inhibitor BMS-790052 (synthesized by Acme Bioscience, Palo Alto, Calif., USA) were conducted similar to what was described for interferon-alpha.

[2] = tested on: J4(1b) NS5A recombinant; format: cell-based; details: Hepatitis C virus
Description: as §1, §2

[3] = tested on: ED43(4a) NS5A recombinant; format: cell-based; details: Hepatitis C virus, read-out: NS5A inhibitor, EC50 (nM), original
Description: as §1, §2

[4] = tested on: HCV-1(1a) NS5A recombinant; format: cell-based; details: Hepatitis C virus; genotype 1a, isolate HCV-1 NS5A recombinant; read-out: NS5A inhibitor, EC50 (nM), original
Description: as §1, §2

[5] = tested on: SA13(5a) NS5A recombinant; format: cell-based; details: Hepatitis C virus; genotype 5a, isolate SA13 NS5A recombinant; read-out: NS5A inhibitor, EC50 (nM), original
Description: as §1, §2

[6] = tested on: HK6a(6a) NS5A recombinant; format: cell-based; details: Hepatitis C virus; genotype 6a, isolate HK6a NS5A recombinant; read-out: NS5A inhibitor, EC50 (nM), original
Description: as §1, §2

[7] = tested on: QC69(7a) NS5A recombinant; format: cell-based; details: Hepatitis C virus; genotype 7a, isolate QC69 NS5A recombinant; read-out: NS5A inhibitor, EC50 (nM), original
Description: as §1, §2

[8] = tested on: JFH1(2a) NS5A (J6/JFH1); format: cell-based; details: Hepatitis C virus; genotype 2a, isolate JFH1 NS5A (J6/JFH1); read-out: NS5A inhibitor, EC50 (nM), original
Description: as §1, §2

[9] = tested on: DH6(1a) NS5A recombinant; format: cell-based; details: Hepatitis C virus; genotype 1a, isolate DH6 NS5A recombinant; read-out: NS5A inhibitor, EC50 (nM), original
Description: as §1, §2

[10] = tested on: TN(1a) NS5A recombinant; format: cell-based; details: Hepatitis C virus; genotype 1a, isolate TN NS5A recombinant; read-out: NS5A inhibitor, EC50 (nM), original
Description: as §1, §2

[11] = tested on: S52(3a) NS5A recombinant; format: cell-based; details: Hepatitis C virus
Description: as §1, §2

[12] = tested on: J1(1a) NS5A recombinant; format: cell-based; details: Hepatitis C virus
Description: as §1, §2

[13] = tested on: H77C(1a) NS5A recombinant; format: cell-based; details: Hepatitis C virus; genotype 1a, isolate H77C NS5A recombinant; read-out: NS5A inhibitor, EC50 (nM), original
Description: as §1, §2

[14] = tested on: J6/JFH1 with NS5A mutation I37V; format: cell-based, hepatitis C virus

Structure (SMILES): COC(=O)N[C@H](C(=O)N1CCC[C@H]1c1nc(-c2ccc(-c3ccc(-c4c[nH]c([C@@H]5CCCN5C(=O)[C@@H](NC(=O)OC)C(C)C)n4)cc3)cc2)c[nH]1)C(C)C [BMS-790052]
- EC50 ([1]; J6(2a), read-out: EC50): 14 nM
- EC50 ([1]; genotype 2a, isolate J6 NS5A recombinant, read-out: NS5A inhibitor, EC50 (nM), original): 14 nM
- EC50 ([2]; J4(1b), most sensitive, read-out: EC50): 0.009 nM
- EC50 ([2]; genotype 1b, isolate J4 NS5A recombinant, read-out: NS5A inhibitor, EC50 (nM), original): 0.009 nM
- EC50 [3]: 0.017 nM
- EC50 [4]: 0.12 nM
- EC50 [5]: 0.034 nM
- EC50 [6]: 0.031 nM
- EC50 [7]: 0.05 nM
- EC50 [8]: 0.097 nM
- EC50 [9]: 0.065 nM
- EC50 [10]: 0.038 nM
- EC50 ([11]; S52(3a), read-out: EC50): 0.9 nM
- EC50 ([11]; genotype 3a, isolate S52 NS5A recombinant, read-out: NS5A inhibitor, EC50 (nM), original): 0.9 nM
- EC50 ([12]; J1(1a), read-out: EC50): 1.1 nM
- EC50 ([12]; genotype 1a, isolate J1 NS5A recombinant, read-out: NS5A inhibitor, EC50 (nM), original): 1.1 nM
- EC50 [13]: 0.026 nM
- EC50 ([14]; Hepatitis C virus, JFH1(2a), NS5A mutation I37V, single experiment of three replicates, read-out: NS5A inhibitor, EC50 (nM), putative resistance mutant): 0.17 nM
- Fold resistance compared to original ([14]; JFH1(2a) I37V vs original JFH1(2a)): 2.0 fold
